Earlier results in patent publication US6653352B2, “Pain reliever and method of use” (Medical Merchandising, Inc., priority 1999, dated 2003).

Settings: in fats, oils and alcohols

- solubility: very soluble in fats, oils and alcohols
Structure (SMILES): COc1cc(CNC(=O)CCCC/C=C/C(C)C)ccc1O [Capsaicin, N-Vanillyl-8-methyl-6-(E)-noneamide]
